Experimental data published in ChEMBL document CHEMBL1144640, “Novel pyrazole derivatives as potent inhibitors of type II topoisomerases. Part 1: synthesis and preliminary SAR analysis” (Bioorg Med Chem Lett, 2007).
≈ marks a conversion by molar mass, not a printed value.

Key:
[1] = system: Streptococcus pneumoniae; test: Antibacterial activity against Streptococcus pneumonia ATCC 49619; assay type: functional
[2] = system: Escherichia coli; test: Antibacterial activity against Escherichia coli KL16; assay type: functional
[3] = system: Staphylococcus aureus; test: Antibacterial activity against Staphylococcus aureus ATCC 13709; assay type: functional
[4] = Inhibition of bacterial DNA gyrase; design: species or system Bacteria
[5] = Inhibition of bacterial topoisomerase 4; design: species or system Bacteria

| MIC [1] | MIC [2] | MIC [3] | IC50 [4] | SMILES | IC50 [5] |
| --- | --- | --- | --- | --- | --- |
| > 128 µg/mL | > 128 µg/mL | > 128 µg/mL | > 8 µg/mL | COc1ccc2nccc(-n3ncc4c3CCN(Cc3ccc5c(c3)OCCO5)C4)c2c1 | – |
| > 128 µg/mL | > 128 µg/mL | > 128 µg/mL | 2 µg/mL (≈ 4.24 µM) | COc1ccc2nccc(-n3ncc4c3CCC(NCc3ccc5c(c3)NC(=O)CS5)C4)c2c1 (stereo not given) | – |
| 2 µg/mL (≈ 4.11 µM) | 2 µg/mL (≈ 4.11 µM) | 1 µg/mL (≈ 2.06 µM) | 0.25 µg/mL (≈ 0.514 µM) | COc1ccc2nccc(-n3cc4c(n3)CCN(C(=O)c3ccc5c(c3)NC(=O)CS5)CC4)c2n1 | – |
| 32 µg/mL (≈ 72.3 µM) | > 128 µg/mL | 16 µg/mL (≈ 36.2 µM) | > 8 µg/mL | COc1ccc2nccc(-n3ncc4c3CCC(NCc3ccc5c(c3)OCCO5)C4)c2c1 (stereo not given) | – |
| 2 µg/mL (≈ 4.12 µM) | 4 µg/mL (≈ 8.24 µM) | 4 µg/mL (≈ 8.24 µM) | 1 µg/mL (≈ 2.06 µM) | COc1ccc2nccc(-n3cc4c(n3)CCC(NC(=O)c3ccc5c(c3)NC(=O)CS5)C4)c2c1 (stereo not given) | 0.125 µg/mL (≈ 0.257 µM) |
| 4 µg/mL (≈ 8.24 µM) | 8 µg/mL (≈ 16.5 µM) | 8 µg/mL (≈ 16.5 µM) | > 8 µg/mL | COc1ccc2nccc(-n3cc4c(n3)CC(NC(=O)c3ccc5c(c3)NC(=O)CS5)CC4)c2c1 (stereo not given) | 0.5 µg/mL (≈ 1.03 µM) |
| 4 µg/mL (≈ 8.22 µM) | 128 µg/mL (≈ 263 µM) | 0.125 µg/mL (≈ 0.257 µM) | 0.06 µg/mL (≈ 0.123 µM) | COc1ccc2nccc(-n3cc4c(n3)CCC(NC(=O)c3ccc5c(c3)NC(=O)CS5)C4)c2n1 (stereo not given) | 0.25 µg/mL (≈ 0.514 µM) |
| > 128 µg/mL | > 128 µg/mL | > 128 µg/mL | > 8 µg/mL | COc1ccc2nccc(-n3cc4c(n3)CCN(Cc3ccc5c(c3)OCCO5)C4)c2c1 | – |

| SMILES | MIC [1] | MIC [2] | MIC [3] | IC50 [4] | IC50 [5] |
| --- | --- | --- | --- | --- | --- |
| COc1ccc2nccc(-n3cc4c(n3)CCC(NCc3ccc5c(c3)NC(=O)CS5)C4)c2n1 (stereo not given) | 2 µg/mL (≈ 4.23 µM) | 1 µg/mL (≈ 2.12 µM) | 0.25 µg/mL (≈ 0.529 µM) | 0.25 µg/mL (≈ 0.529 µM) | 0.016 µg/mL (≈ 0.0339 µM) |
| COc1ccc2nccc(-n3cc4c(n3)CCC(NCc3ccc5c(c3)OCCO5)C4)c2c1 (stereo not given) | 0.5 µg/mL (≈ 1.13 µM) | 64 µg/mL (≈ 145 µM) | 0.5 µg/mL (≈ 1.13 µM) | 2 µg/mL (≈ 4.52 µM) | 0.06 µg/mL (≈ 0.136 µM) |
| COc1ccc2nccc(-n3cc4c(n3)CCC(NCc3ccc5c(c3)NC(=O)CS5)C4)c2c1 (stereo not given) | 0.5 µg/mL (≈ 1.06 µM) | 2 µg/mL (≈ 4.24 µM) | 0.25 µg/mL (≈ 0.53 µM) | 0.25 µg/mL (≈ 0.53 µM) | 0.03 µg/mL (≈ 0.0636 µM) |
